Data from patent publication US9770452B2, “Quinoxaline derivatives as GPR6 modulators” (Takeda Pharmaceutical Company Limited, priority 2012, dated 2017).

Target: T1, GPR6 receptor (Homo sapiens, UniProt P46095)
T1 construct: expressed in transfected cells
Assay: Inhibition of cAMP Activity of GPR6 In Vitro Assay (CHO-K1 cells, HTRF cAMP)
Assay type: cell-based
Settings: compounds of Compound Table 1; inhibition of constitutive cAMP activity of GPR6 expressed in CHO-K1 cells; approximate IC50; read-out: IC50
How it was run: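 CHO-K1 cells with doxycycline-induced (1 μg/ml, 20 h) GPR6 treated with compounds 45 min at 37 °C in Ringer's buffer (pH 7.4) with 0.5% fatty acid free BSA. Constitutive cAMP measured by Lance HTRF Ultra cAMP; IC50 from four-parameter logistic fit.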

T1 sequence (P46095 whole entry): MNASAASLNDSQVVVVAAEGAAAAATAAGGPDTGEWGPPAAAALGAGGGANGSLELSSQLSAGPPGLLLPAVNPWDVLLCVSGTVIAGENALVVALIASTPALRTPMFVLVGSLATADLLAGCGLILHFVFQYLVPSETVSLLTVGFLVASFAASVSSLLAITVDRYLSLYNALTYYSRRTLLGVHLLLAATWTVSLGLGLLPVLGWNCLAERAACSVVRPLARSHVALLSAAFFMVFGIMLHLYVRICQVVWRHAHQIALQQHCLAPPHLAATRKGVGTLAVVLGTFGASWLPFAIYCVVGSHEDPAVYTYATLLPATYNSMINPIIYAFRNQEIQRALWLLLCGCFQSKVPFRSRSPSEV

(S)-2-(cyclopropylamino)-3-(4-((2,4-difluorophenyl)fluoromethyl)piperidin-1-yl)pyrido[3,4-b]pyrazine-7-carbonitrile [Cpd 547]
IC50: 16 nM

(S)-3-(cyclopropylamino)-2-(4-((2,4-difluorophenyl)fluoromethyl)piperidin-1-yl)pyrido[3,4-b]pyrazine-7-carbonitrile [Cpd 550]
IC50: 17 nM

(S)-3-(cyclopropylamino)-2-(4-((2,4-difluorophenyl)fluoromethyl)piperidin-1-yl)quinoxaline-6-carbonitrile [Cpd 509]
IC50: 49 nM

(S)-(2-(cyclopropylamino)-3-(4-((2,4-difluorophenyl)fluoromethyl)piperidin-1-yl)pyrido[3,4-b]pyrazin-7-yl)(morpholino)methanone, 2,2,2-trifluoroacetic acid salt [Cpd 579]
IC50: 10 nM

(S)—N-(sec-butyl)-3-(4-(2-fluoro-4-methoxyphenoxy)piperidin-1-yl)pyrazino[2,3-d]pyridazin-2-amine, 2,2,2-trifluoroacetic acid salt [Cpd 637]
IC50: 26 nM

(S)—N-cyclopropyl-3-(4-((2,4-difluorophenyl)fluoromethyl)piperidin-1-yl)-5-methylpyrido[3,4-b]pyrazin-2-amine, 2,2,2-trifluoroacetic acid salt [Cpd 516]
IC50: 29 nM

(S)—N-cyclopropyl-3-(4-((2,4-difluorophenyl)fluoromethyl)piperidin-1-yl)-7-methylpyrido[3,4-b]pyrazin-2-amine, 2,2,2-trifluoroacetic acid salt [Cpd 502]
IC50: 1430 nM

(S)—N-cyclopropyl-3-(4-((2,4-difluorophenyl)fluoromethyl)piperidin-1-yl)pyrazino[2,3-d]pyridazin-2-amine, 2,2,2-trifluoroacetic acid salt [Cpd 594]
IC50: 31 nM

N2-cyclopropyl-3-(4-(2-fluoro-4-methoxyphenoxy)piperidin-1-yl)-N5,N5-dimethylpyrido[3,4-b]pyrazine-2,5-diamine, 2,2,2-trifluoroacetic acid salt [Cpd 607]
IC50: 43 nM

N-cyclobutyl-2-(4-(2,4-difluorophenoxy)piperidin-1-yl)pyrido[3,4-b]pyrazin-3-amine [Cpd 657]
IC50: 8 nM

N-cyclohexyl-3-(4-(2,5-dichlorobenzyl)piperazin-1-yl)quinoxalin-2-amine, 2,2,2-trifluoroacetic acid salt [Cpd 170]
IC50: 4070 nM

N-cyclopropyl-2-(4-(2,4-difluorobenzyl)piperidin-1-yl)pyrido[3,4-b]pyrazin-3-amine, 2,2,2-trifluoroacetic acid salt [Cpd 427]
IC50: 78 nM

N-cyclopropyl-2-(4-(2,5-difluorobenzyl)piperazin-1-yl)pyrido[3,4-b]pyrazin-3-amine, 2,2,2-trifluoroacetic acid salt [Cpd 292]
IC50: 56 nM

N-cyclopropyl-3-(4-(2,3,5-trichlorobenzyl)piperazin-1-yl)quinoxalin-2-amine, 2,2,2-trifluoroacetic acid salt [Cpd 221]
IC50: 20400 nM

N-cyclopropyl-3-(4-(2,4-difluorobenzyl)piperidin-1-yl)-5-methylpyrido[3,4-b]pyrazin-2-amine, 2,2,2-trifluoroacetic acid salt [Cpd 493]
IC50: 9 nM

N-cyclopropyl-3-(4-(2,4-difluorobenzyl)piperidin-1-yl)-6-fluoroquinoxalin-2-amine, 2,2,2-trifluoroacetic acid salt [Cpd 479]
IC50: 140 nM

N-cyclopropyl-3-(4-(2,4-difluorobenzyl)piperidin-1-yl)pyrido[3,4-b]pyrazin-2-amine, 2,2,2-trifluoroacetic acid salt [Cpd 414]
IC50: 390 nM

N-cyclopropyl-3-(4-(2,4-difluorophenoxy)piperidin-1-yl)-5-methylpyrido[3,4-b]pyrazin-2-amine, 2,2,2-trifluoroacetic acid salt [Cpd 494]
IC50: 2 nM

N-cyclopropyl-3-(4-(2,4-difluorophenoxy)piperidin-1-yl)pyrazino[2,3-d]pyridazin-2-amine, 2,2,2-trifluoroacetic acid salt [Cpd 619]
IC50: 14 nM

N-cyclopropyl-3-(4-(2,5-dichlorobenzyl)piperazin-1-yl)pyrido[3,4-b]pyrazin-2-amine, 2,2,2-trifluoroacetic acid salt [Cpd 134]
IC50: 1640 nM

N-cyclopropyl-3-(4-(2,5-difluorophenoxy)piperidin-1-yl)pyrido[3,4-b]pyrazin-2-amine, 2,2,2-trifluoroacetic acid salt [Cpd 431]
IC50: 170 nM

N-cyclopropyl-3-(4-(2-fluoro-4-(methylthio)phenoxy)piperidin-1-yl)pyrazino[2,3-d]pyridazin-2-amine, 2,2,2-trifluoroacetic acid salt [Cpd 618]
IC50: 12 nM

N-cyclopropyl-3-(4-(2-methoxyphenoxy)piperidin-1-yl)pyrido[3,4-b]pyrazin-2-amine, 2,2,2-trifluoroacetic acid salt [Cpd 559]
IC50: 67 nM

N-cyclopropyl-3-(4-(3-isopropylbenzyl)piperazin-1-yl)quinoxalin-2-amine, 2,2,2-trifluoroacetic acid salt [Cpd 211]
IC50: 9440 nM

N-cyclopropyl-3-(4-(3-methoxyphenoxy)piperidin-1-yl)pyrido[3,4-b]pyrazin-2-amine, 2,2,2-trifluoroacetic acid salt [Cpd 558]
IC50: 1940 nM

N-cyclopropyl-3-(4-(4-(methylthio)phenoxy)piperidin-1-yl)pyrido[3,4-b]pyrazin-2-amine, 2,2,2-trifluoroacetic acid salt [Cpd 600]
IC50: 20 nM

N-cyclopropyl-3-(4-(4-ethoxyphenoxy)piperidin-1-yl)pyrido[3,4-b]pyrazin-2-amine, 2,2,2-trifluoroacetic acid salt [Cpd 601]
IC50: 22 nM

N-cyclopropyl-3-(4-(4-fluoro-2-methylbenzyl)piperazin-1-yl)quinoxalin-2-amine, 2,2,2-trifluoroacetic acid salt [Cpd 157]
IC50: 105000 nM

N-cyclopropyl-3-(4-(4-fluorobenzyl)piperazin-1-yl)pyrido[3,4-b]pyrazin-2-amine, 2,2,2-trifluoroacetic acid salt [Cpd 291]
IC50: 140 nM

N-cyclopropyl-3-(4-(4-fluorobenzyl)piperidin-1-yl)pyrido[3,4-b]pyrazin-2-amine, 2,2,2-trifluoroacetic acid salt [Cpd 421]
IC50: 8390 nM

N-cyclopropyl-3-(4-(4-methoxyphenoxy)piperidin-1-yl)pyrido[3,4-b]pyrazin-2-amine [Cpd 552]
IC50: 24 nM

N-cyclopropyl-3-(4-((2,4-difluorophenyl)difluoromethyl)piperidin-1-yl)pyrido[3,4-b]pyrazin-2-amine [Cpd 545]
IC50: 45 nM

N-cyclopropyl-3-(4-((2,4-difluorophenyl)fluoromethyl)piperidin-1-yl)-7-methylpyrido[3,4-b]pyrazin-2-amine, 2,2,2-trifluoroacetic acid salt [Cpd 488]
IC50: 29 nM

N-cyclopropyl-3-(4-((2,5-difluorophenyl)difluoromethyl)piperidin-1-yl)pyrido[3,4-b]pyrazin-2-amine [Cpd 540]
IC50: 46 nM

N-cyclopropyl-3-(4-((4-(trifluoromethyl)phenyl)sulfonyl)piperazin-1-yl)pyrido[3,4-b]pyrazin-2-amine, 2,2,2-trifluoroacetic acid salt [Cpd 302]
IC50: 340 nM

N-cyclopropyl-3-(4-((4-fluorophenyl)sulfonyl)piperazin-1-yl)pyrido[3,4-b]pyrazin-2-amine, 2,2,2-trifluoroacetic acid salt [Cpd 288]
IC50: 2650 nM

N-cyclopropyl-3-(4-((4-fluorophenyl)sulfonyl)piperidin-1-yl)-7-methylpyrido[3,4-b]pyrazin-2-amine 2,2,2-trifluoroacetate [Cpd 654]
IC50: 30 nM

N-cyclopropyl-3-(4-((5-methylisoxazol-3-yl)methyl)piperazin-1-yl)quinoxalin-2-amine, 2,2,2-trifluoroacetic acid salt [Cpd 158]
IC50: 440 nM

N-cyclopropyl-3-(4-(pyridin-4-yloxy)piperidin-1-yl)pyrido[3,4-b]pyridin-2-amine [Cpd 554]
IC50: 190 nM

N-ethyl-3-(4-(2-fluoro-4-methoxyphenoxy)piperidin-1-yl)pyrido[3,4-b]pyrazin-2-amine, 2,2,2-trifluoroacetic acid salt [Cpd 622]
IC50: 29 nM

azetidin-1-yl(2-(cyclopropylamino)-3-(4-(2-fluoro-4-methoxyphenoxy)piperidin-1-yl)pyrido[3,4-b]pyrazin-5-yl)methanone, 2,2,2-trifluoroacetic acid salt [Cpd 610]
IC50: 1570 nM

mixture of N-cyclopropyl-3-(4-(2,5-dichlorobenzyl)piperazin-1-yl)-7-methoxyquinoxalin-2-amine, 2,2,2-trifluoroacetic acid salt and N-cyclopropyl-3-(4-(2,5-dichlorobenzyl)piperazin-1-yl)-7-methoxyquinoxalin-2-amine, 2,2,2-trifluoroacetic acid salt [Cpd 47]
IC50: 3360 nM
